Assay results taken from patent publication US8367716B2 (priority 2003, dated 2013).
Values after ≈ are worked out from the molar mass of the structure shown.

How the values were obtained:
S. aureus strain 15981 = settings: S. aureus 15981, hyperbiofilm human clinical strain; cited from earlier work
S. aureus strain DK825 = assay: microbe, parasite or virus in culture; assay type: cell-based, Staphylococcus aureus
Protocol: Antibiotic susceptibility testing. Susceptibility tests were performed in Sensititre microtitre plates according to the manufacturer's instructions (Microbiology Systems).

S. aureus = assay: Biofilm formation on polystyrene microtitre plates (crystal violet, O.D.570); assay type: cell-based, Staphylococcus aureus; settings: DK825, 200 μM
Protocol: Effect of c-di-GMP on S. aureus biofilm formation. S. aureus strains were subcultured from glycerol stocks onto blood agar plates and incubated at 37° C. for 18 h. A single colony was inoculated into 5 ml TSB broth with a sterilized loop and incubated at 37° C. for 18 h with shaking at 250 rpm and until the O.D.660 reached 3.0 as measured spectrophotometrically using a spectrophotometer (SpectraMAX 250, Molecular Devices). Following incubation, the culture was diluted 1:250 with fresh TSB and a 200 μl of the diluted culture was transferred into wells of a flat-bottom polystyrene microtitre plate (Evergreen Scientific). […] In these biofilm experiments, similar volumes of 0.9% NaCl was added to a set of different wells representing the “untreated” control samples. The microtitre plates were then incubated statically at 37° C. for 24 h or 48 h. Following incubation, the supernatant was carefully discarded and the wells washed twice with 260 μl PBS. The plate was then kept for drying on a paper towel for 30 min after which 260 μl 0.1% crystal violet was added to each well and the plates incubated at room temperature for 30 min. The crystal violet was discarded and plate washed gently with water, the wells allowed to dry for 30 min then 260 μl DMSO was added to each well and gently agitated for 1 h and the O.D.570 measured by using a spectrophotometer (SpectraMAX 250, Molecular Devices). The results of these biofilm assays were based on data obtained from at least three independent colonies tested in duplicate.

Compound	antibiotic susceptibility (S. aureus strain 15981)	MIC (S. aureus strain DK825; Staphylococcus aureus, MRSA)	also measured
CC1(C)S[C@@H]2[C@H](NC(=O)[C@H](N)c3ccc(O)cc3)C(=O)N2[C@H]1C(=O)O [AMX]	susceptible	–	–
CC1(C)S[C@@H]2[C@H](NC(=O)[C@H](N)c3ccccc3)C(=O)N2[C@H]1C(=O)O [Ampicillin]	–	4 µg/mL (≈ 11.4 µM)	–
Penicillin	–	–	MIC (S. aureus strain DK825; S. aureus DK825 (MRSA)): > 8 µg/mL
CO[C@H]1/C=C/O[C@@]2(C)Oc3c(C)c(O)c4c(O)c(c(/C=N/N5CCN(C)CC5)c(O)c4c3C2=O)NC(=O)/C(C)=C\C=C\[C@H](C)[C@H](O)[C@@H](C)[C@@H](O)[C@@H](C)[C@H](OC(C)=O)[C@@H]1C [Rifampin]	–	> 2 µg/mL	–
O=C(O)c1cn(C2CC2)c2cc(N3CCNCC3)c(F)cc2c1=O [Ciprofloxacin]	–	> 2 µg/mL	–
CC[C@H]1OC(=O)[C@H](C)[C@@H](O[C@H]2C[C@@](C)(OC)[C@@H](O)[C@H](C)O2)[C@H](C)[C@@H](O[C@@H]2O[C@H](C)C[C@H](N(C)C)[C@H]2O)[C@](C)(O)C[C@@H](C)C(=O)[C@H](C)[C@@H](O)[C@]1(C)O [Erythromycin]	susceptible	> 4 µg/mL	–
C[C@H]1COc2c(N3CCN(C)CC3)c(F)cc3c(=O)c(C(=O)O)cn1c23 [Levofloxacin]	–	2 µg/mL (≈ 5.53 µM)	–
Nc1nc2c(ncn2[C@@H]2O[C@H](COP(=O)(O)O)[C@@H](O)[C@H]2O)c(=O)[nH]1 [5′-GMP, guanosine 5′-monophosphate, reference compound]	–	–	effect on biofilm formation (S. aureus): no effect
CN[C@H](CC(C)C)C(=O)N[C@H]1C(=O)N[C@@H](CC(N)=O)C(=O)N[C@H]2C(=O)N[C@H]3C(=O)N[C@H](C(=O)N[C@H](C(=O)O)c4cc(O)cc(O)c4-c4cc3ccc4O)[C@H](O)c3ccc(c(Cl)c3)Oc3cc2cc(c3O[C@@H]2O[C@H](CO)[C@@H](O)[C@H](O)[C@H]2O[C@H]2C[C@](C)(N)[C@H](O)[C@H](C)O2)Oc2ccc(cc2Cl)[C@H]1O [Vancomycin]	susceptible	< 0.5 µg/mL	–
CC[C@H]1OC(=O)[C@H](C)[C@@H](O[C@H]2C[C@@](C)(OC)[C@@H](O)[C@H](C)O2)[C@H](C)[C@@H](O[C@@H]2O[C@H](C)C[C@H](N(C)C)[C@H]2O)[C@](C)(OC)C[C@@H](C)C(=O)[C@H](C)[C@@H](O)[C@]1(C)O [Clarithromycin]	–	> 4 µg/mL	–
Cc1onc(-c2ccccc2)c1C(=O)N[C@@H]1C(=O)N2[C@@H]1SC(C)(C)[C@@H]2C(=O)O [Oxacillin]	–	> 2 µg/mL	–
Nc1nc2c(ncn2[C@@H]2O[C@@H]3COP(=O)(O)O[C@H]3[C@H]2O)c(=O)[nH]1 [cGMP, guanosine 3′, 5′-cyclic monophosphate, reference compound]	–	–	reduction of biofilm formation (S. aureus; 24 h): ~40%
CCC[C@@H]1C[C@@H](C(=O)N[C@@H]([C@H]2O[C@H](SC)[C@H](O)[C@@H](O)[C@H]2O)[C@H](C)Cl)N(C)C1 [Clindamycin]	–	> 2 µg/mL	–
COc1c(N2C[C@@H]3CCCN[C@@H]3C2)c(F)cc2c(=O)c(C(=O)O)cn(C3CC3)c12 [Moxifloxacin]	–	2 µg/mL (≈ 4.98 µM)	–
COc1cccc(OC)c1C(=O)N[C@@H]1C(=O)N2[C@@H]1SC(C)(C)[C@@H]2C(=O)O [MET]	susceptible	–	–
C[C@H]1c2cccc(O)c2C(O)=C2C(=O)[C@]3(O)C(O)=C(C(N)=O)C(=O)[C@@H](N(C)C)[C@@H]3[C@@H](O)[C@@H]21 [DOX]	susceptible	–	–
C[C@@H]1O[C@@H]1P(=O)(O)O [FOF]	susceptible	–	–
